Counter-ions that a name gives are not always drawn.
Target: T1, KRAS-G12D and SOS1 (Homo sapiens, UniProt P01116, G12D)
T1 construct: purchased
Assay: Inhibition of KRAS-G12D/SOS1 binding (Cisbio binding kit, 665/615 ratio), Effect Embodiment A
Settings: read-out: GTP-KRAS-G12D:SOS1 IC50
Experimental: Similarly, the first dilution point of the compound to be tested was its storage solution, and the solution was 3-fold diluted, with 11+0 points of dilution. Echo was used to transfer 0.2 μL gradient diluted solution of the compounds into a 384-well plate, with 2 duplicated wells for each compound, and the final concentration of DMSO was 1%. The solution was centrifuged for 1 min at 1000 rpm/min.
IC50 of the compounds was fitted by Graphpad Prism 8 nonlinear regression equation: […]
The IC50 (half inhibitory concentration) of the compound was obtained by using the following nonlinear fitting formula: […]

T1 sequence (P01116 1-188 isoform P01116-2 G12D): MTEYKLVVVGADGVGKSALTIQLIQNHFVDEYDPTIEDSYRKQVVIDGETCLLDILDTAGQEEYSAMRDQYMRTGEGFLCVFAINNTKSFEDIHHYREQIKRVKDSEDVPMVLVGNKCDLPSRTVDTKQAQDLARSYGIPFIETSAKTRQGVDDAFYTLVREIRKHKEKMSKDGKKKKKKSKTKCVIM

SMILES	IC50 [µM]
CN(C)C1CN(c2nc(N3C[C@H]4CC[C@@H](C3)[C@@H]4N)c3cc(Cl)c(-c4cc(O)cc5ccccc45)c(F)c3n2)C1 (single isomer, unassigned) [Compound 30, (S or R)-4-(4-((1R,5S,8S)-8-amino-3-azabicyclo[3.2.1]octan-3-yl)-6-chloro-2-(3-(dimethylamino)azetidin-1-yl)-8-fluoroquinazolin-7-yl)naphthalen-2-ol]	1.23
CN(C)CCCCOc1nc(N2CC3CCC(C2)N3)c2cc(Cl)c(-c3cc(O)cc4ccccc34)c(F)c2n1 (single isomer, unassigned) [Compound 60b, 4-((R or S)-4-((1R,5S)-3,8-diazabicyclo[3.2.1]octan-3-yl)-6-chloro-2-(4-(dimethylamino)butoxy)-8-fluoroquinazolin-7-yl)naphthalen-2-ol]	72.4
CN(C)C1CN(c2nc(N3C[C@H]4C[C@@H]3CN4)c3cc(Cl)c(-c4cc(O)cc5ccccc45)c(F)c3n2)C1 (single isomer, unassigned) [Compound 3a, (R or S)-4-(4-((1R,4R)-2,5-diazabicyclo [2.2.1]heptan-2-yl)-6-chloro-2-(3-(dimethylamino)azetidin-1-yl)-8-fluoro-quinazolin-7-yl)naphthalen-2-ol]	1.36
CCc1cccc2cc(O)cc(-c3c(F)cc4c(N5CC6CCC(C5)N6)nc(OC[C@@]56CCCN5C[C@H](F)C6)nc4c3F)c12 (single isomer, unassigned) [Compound 285b, (R or S)-4-(4-((1R,5S)-3,8-diazacyclo[3.2.1]octan-3-yl)-6,8-difluoro-2-((2R,7aS)-2-fluorotetrahydro-1H-pyrrolidin-7a(5H-yl)methoxy)quinazolin-7-yl)-5-ethylnaphthalen-2-ol dihydrochloride]	1.46
CN(C)C1CN(c2nc(N3CC(N(C)C)C3)c3cc(Cl)c(-c4cc(O)cc5ccccc45)c(F)c3n2)C1 (single isomer, unassigned) [Compound 9a, (R or S)-4-(6-chloro-2,4-bis(3-(dimethylamino)azetidin-1-yl)-8-fluoro-7-yl)naphthalen-2-ol]	81.6
CN(C)C1CN(c2nc(C3(C(N)=O)CN(C(=N)N)C3)c3cc(Cl)c(-c4cc(O)cc5ccccc45)c(F)c3n2)C1 (single isomer, unassigned) [Compound 145, (R or S)-1-Carbamimidoyl-3-(6-chloro-2-(3-(dimethylamino)azetidin-1-yl)-8-fluoro-7-(3-hydroxynaphthalen-1-yl)quinazolin-4-yl)azetidin-3-carboxamide ditrifluoroacetate]	5.94
CN(C)C1CN(c2nc(N3CC4CCC(C3)N4C)c3cc(Cl)c(-c4cc(O)cc5ccccc45)c(F)c3n2)C1 (single isomer, unassigned) [Compound 86, 4-((S or R)-6-chloro-2-(3-(dimethylamino)azetidin-1-yl)-8-fluoro-4-((1R,5S)-8-methyl)-3,8-diazabicyclo[3.2.1]octan-3-yl)quinazolin-7-yl)naphthalen-2-ol]	3.57
CN1CCC[C@H]1COc1nc(N2CC3CCC(C2)N3)c2cc(Cl)c(-c3cc(O)cc4ccccc34)c(F)c2n1 (single isomer, unassigned) [Compound 39b, (R or S)-4-(4-((1R,5S)-3,8-diazabicyclo[3.2.1]octan-3-yl)-6-chloro-8-fluoro-2-((S)-1-methylpyrrolidin-2-yl)methoxy)quinazolin-7-yl)naphthalen-2-ol]	17.7

The remaining lines, values ahead:

IC50 [µM]	SMILES
9.18	CCc1cccc2cc(O)cc(-c3c(F)cc4c(N5CC6CCC(C5)N6)nc(OCCCN5C[C@@H](C)O[C@@H](C)C5)nc4c3F)c12 (single isomer, unassigned) [Compound 283b, (R or S)-4-(4-((1R,5S)-3,8-diazacyclo[3.2.1]octan-3-yl)-2-(3-((2S,6R)-2,6-dimethylmorpholinyl)propoxy)-6,8-difluoroquinazolin-7-yl)-5-ethylnaphthalen-2-ol dihydrochloride]
0.108	C[C@H]1CCCN1CCCOc1nc(N2CC3CCC(C2)N3)c2cc(Cl)c(-c3cc(O)cc4ccccc34)c(F)c2n1 (single isomer, unassigned) [Compound 108b, 4-((S or R)-4-((1R,5S)-3,8-diazabicyclo[3.2.1]octan-3-yl)-6-chloro-8-fluoro-2-(3-((S)-2-methylpyrrolidin-1-yl)propoxy)quinazolin-7-yl)naphthalen-2-ol dihydrochloride]
8.32	CN1CCC[C@H]1C1(Oc2nc(N3CC4CCC(C3)N4)c3cc(Cl)c(-c4cc(O)cc5ccccc45)c(F)c3n2)CC1 (single isomer, unassigned) [Compound 189, 4-((R or S)-4-((1R,5S)-3,8-diazabicyclo[3.2.1]octan-3-yl)-6-chloro-8-fluoro-2-(1-((S)-1-methylpyrrolidin-2-yl)cyclopropoxy)quinazolin-7-yl)naphthalen-2-ol diformate]
13.8	CCN(C)CCCOc1nc(N2CC3CCC(C2)N3)c2cc(Cl)c(-c3cc(O)cc4ccccc34)c(F)c2n1 (single isomer, unassigned) [Compound 49b, 4-((R or S)-4-((1R,5S)-3,8-diazabicyclo[3.2.1]octan-3-yl)-6-chloro-2-(3-(ethyl(methyl)amino)propoxy)-8-fluoroquinazolin-7-yl)naphthalen-2-ol dicarboxylate]
0.581	CC1(C)CN(CCCOc2nc(N3CC4CCC(C3)N4)c3cc(Cl)c(-c4cc(O)cc5ccccc45)c(F)c3n2)CC(C)(C)O1 (single isomer, unassigned) [Compound 222, 4-((S or R)-4-((1R,5S)-3,8-diazabicyclo[3.2.1]octan-3-yl)-6-chloro-8-fluoro-2-(3-(2,2,6,6-tetramethylmorpholinyl)propoxy)quinazolin-7-yl)naphthalen-2-ol formate]
> 10	CN(C)CCCOc1nc(N2C[C@H]3CC[C@@H](C2)N3)c2ccn(-c3cc(O)cc4ccccc34)c(=O)c2n1 [Compound 161, 4-((1R,5S)-3,8-diazabicyclo[3.2.1]octan-3-yl)-2-(3-(dimethylamino)propoxy)-7-(3-hydroxynaphthalen-1-yl)pyrido[3,4-d]pyrimidin-8(7H)-one dihydrochloride]
0.25	Oc1cc(-c2c(Cl)cc3c(N4CC5CCC(C4)N5)nc(OCC(CN4C5CCC4COC5)C(F)(F)F)nc3c2F)c2ccccc2c1 (single isomer, unassigned) [Compound 218b, 4-((7S or 7R)-2-((2R or 2S)-2-((3-oxa-8-azabicyclo[3.2.1]octan-8-yl)methyl)-3,3,3-trifluoropropoxy)-4-((1R,5S)-3,8-diazabicyclo[3.2.1]octan-3-yl)-6-chloro-8-fluoroquinazolin-7-yl)naphthalen-2-ol formate]
> 200	CN(C)CCCn1c(=O)nc(N2CC3CCC(C2)N3)c2cc(Cl)c(-c3cc(O)cc4ccccc34)c(F)c21 (single isomer, unassigned) [Compound 74b, 4-((1R,5S)-3,8-diazabicyclo[3.2.1]octan-3-yl)-6-chloro-1-(3-(dimethylamino)propyl)-8-fluoro-7-((R or S)-3-hydroxynaphthalen-1-yl)quinazolin-2(1H)-one]
0.12	CN1CCC1CCOc1nc(N2CC3CCC(C2)N3)c2cc(Cl)c(-c3cc(O)cc4ccccc34)c(F)c2n1 (single isomer, unassigned) [Compound 112b, 4-((S or R)-4-((1R,5S)-3,8-diazabicyclo[3.2.1]octan-3-yl)-6-chloro-8-fluoro-2-(2-((R or S)-1-methylazetidin-2-yl)ethoxy)quinazolin-7-yl)naphthalen-2-ol carboxylate]
